Assay results from PMC5029629, “β-casein nanovehicles for oral delivery of chemotherapeutic drug combinations overcoming P-glycoprotein-mediated multidrug resistance in human gastric cancer cells” (Oncotarget, 2016).

Target: T1, β-casein (β-CN) (Bos taurus, UniProt P02666)
T1 construct: gene CSN2
T1 sequence (P02666 16-224): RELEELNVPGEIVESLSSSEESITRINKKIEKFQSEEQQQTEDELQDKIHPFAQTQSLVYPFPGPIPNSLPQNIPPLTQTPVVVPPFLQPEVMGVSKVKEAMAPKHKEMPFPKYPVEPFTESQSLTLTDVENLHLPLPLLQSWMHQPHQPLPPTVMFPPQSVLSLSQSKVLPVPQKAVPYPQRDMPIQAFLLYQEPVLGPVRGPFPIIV
Test: Trp143 fluorescence quenching, modified Stern-Volmer fit (combined static and dynamic)
Type: binding
Settings: PBS pH 7.0, 0.1 M ionic strength, 2.5% DMSO, 23 °C, 1 mg/ml protein (micelles); KSV called association constant but also defined as Stern-Volmer overall quenching constant; ligand poorly soluble
From the text: Trp143 fluorescence quenching, modified Stern-Volmer fit (combined static and dynamic) on β-casein (β-CN)

SMILES | KSV ± SE (10^4 M^-1)
COc1cc2c(cc1OC)CN(CCc1ccc(NC(=O)c3cc(OC)c(OC)cc3NC(=O)c3cnc4ccccc4c3)cc1)CC2 [Tariquidar] | 1.80 ± 0.16 10^4 M^-1
CC(=O)O[C@H]1C(=O)[C@@]2(C)[C@H]([C@H](OC(=O)c3ccccc3)[C@]3(O)C[C@H](OC(=O)[C@H](O)[C@@H](NC(=O)c4ccccc4)c4ccccc4)C(C)=C1C3(C)C)[C@]1(OC(C)=O)CO[C@@H]1C[C@@H]2O [Paclitaxel] | 0.96 ± 0.07 10^4 M^-1
